From patent US11040976B2, “Substrate selective inhibitors of insulin-degrading enzyme (IDE) and uses thereof” (President and Fellows of Harvard College, priority 2015, dated 2021)

Legend:
[1] = target: T1, Human N-His6-IDE42-1019 (E. coli expressed) (Homo sapiens, UniProt P14735); assay: Fluorescence anisotropy high-throughput screening assay (displacement of probe FL-6b); format: binding
T1 construct: Human N-His6-IDE42-1019 (E. coli expressed); made in house; host or cells: E. coli (Rosetta 2 (DE3) pLysS, plasmid pTrcHis-A)
T1 sequence (P14735 42-1019): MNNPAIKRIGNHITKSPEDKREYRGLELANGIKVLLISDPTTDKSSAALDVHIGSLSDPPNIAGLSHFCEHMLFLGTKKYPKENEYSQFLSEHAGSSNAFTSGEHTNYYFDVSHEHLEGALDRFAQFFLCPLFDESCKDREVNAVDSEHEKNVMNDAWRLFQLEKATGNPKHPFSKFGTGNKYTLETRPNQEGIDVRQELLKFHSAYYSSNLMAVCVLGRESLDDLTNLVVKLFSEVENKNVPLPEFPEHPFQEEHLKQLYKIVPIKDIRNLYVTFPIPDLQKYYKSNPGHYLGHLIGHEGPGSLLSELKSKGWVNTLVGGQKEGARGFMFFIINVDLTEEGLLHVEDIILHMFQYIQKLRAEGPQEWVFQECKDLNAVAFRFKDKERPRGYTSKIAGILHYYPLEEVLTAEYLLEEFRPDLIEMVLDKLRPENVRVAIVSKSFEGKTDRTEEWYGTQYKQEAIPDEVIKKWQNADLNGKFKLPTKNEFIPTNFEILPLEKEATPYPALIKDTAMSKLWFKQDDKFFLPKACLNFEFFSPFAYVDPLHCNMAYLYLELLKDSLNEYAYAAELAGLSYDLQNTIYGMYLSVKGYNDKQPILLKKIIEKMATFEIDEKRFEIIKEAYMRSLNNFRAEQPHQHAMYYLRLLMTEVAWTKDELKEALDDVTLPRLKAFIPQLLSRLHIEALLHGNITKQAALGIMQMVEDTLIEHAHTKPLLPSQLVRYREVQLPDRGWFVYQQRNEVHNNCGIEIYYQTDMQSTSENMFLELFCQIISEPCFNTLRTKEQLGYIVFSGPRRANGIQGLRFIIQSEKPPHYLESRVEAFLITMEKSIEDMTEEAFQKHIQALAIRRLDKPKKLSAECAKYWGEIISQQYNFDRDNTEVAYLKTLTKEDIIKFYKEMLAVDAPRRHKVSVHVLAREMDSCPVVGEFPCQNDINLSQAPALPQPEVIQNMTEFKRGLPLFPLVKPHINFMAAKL
Description: The fluorescence anisotropy screening method and probe FL-6b are described in PCT application PCT/US2014/064322, incorporated herein by reference.
Human N-His6-IDE42-1019 (E. coli expressed) was mixed with fluorescein-labeled macrocycle FL-6b:
[drawing 802] in 50 mM Tris buffer pH 8.0, with 1 M NaCl, at 25° C. Optimum signal was obtained using a mixture of […] probe FL-6b and 0.5 μM IDE. The “diversity-oriented (DOS) synthesis informer set” compound plates were pinned onto 384-well plates containing the enzyme-probe mixture (50 μL/well). The azetidine screen was pre-printed on 384-well plates and the enzyme-probe mixture was added (50 μL/well). The final compound concentration was 20 μM. IDE inhibitor 6bK was used as a positive control at a final concentration of 1 μM. After 30 minutes of equilibration, the increase in fluorescence anisotropy was recorded using an EnVision spectrophotometer (excitation 492 nm, emission 523 nm). The fluorescence anisotropy was independently measured twice for each screened compound. The Z-scores for each pair of measurements are plotted in FIG. 1A (DOS informer set) and FIG. 1B (azetidines), and average Z-scores are listed for exemplary compounds in Table E1.
Z-scores were calculated based on the raw anisotropy measured for each well according to Eq. 1, wherein x is the raw anisotropy value of the well, μ is the mean of the anisotropy of the negative control wells (DMSO) for the plate, and σ is the standard deviation in anisotropy of the negative control wells (DMSO) for the plate.

[2] = target: T2, recombinant human IDE42-1019 (Homo sapiens, UniProt P14735); assay: Protease assay with fluorogenic peptide substrate Mca-[…](Dnp)-OH; format: biochemical; details: fluorogenic peptide Mca-RPPGFSAFK(Dnp)-OH; for IC50: apparent IC50 for compounds with submaximal inhibition, read-out: IC50 (μM) Proteolysis; for Emax: plateau at high inhibitor concentration, read-out: Imax (%) Proteolysis (inhibition maximum)
T2 construct: recombinant human IDE42-1019 (R&D Systems); purchased R&D Systems
T2 sequence (P14735 42-1019): T1 sequence (P14735 42-1019)

[3] = final compound concentration 20 μM (6bK control 1 μM), values without asterisk

| SMILES | Average Z-score (Fluorescence anisotropy) [1, 3] | IC50 [2] [µM] | Emax [2] [%] | Average Z-score (Fluorescence anisotropy) ([1]; values marked *: from the screen using the diversity-oriented synthesis (DOS) informer set of plates, 20 μM) |
| --- | --- | --- | --- | --- |
| Cc1cccc(-c2ccc([C@@H]3[C@@H](CO)N4CCCCN(C(=O)c5cccnc5)C[C@@H]34)cc2)c1 [compound 443] | −3.13 | > 100 | – | – |
| O=C(c1ccccn1)N1CC(=O)N2[C@@H](CO)[C@@H](c3ccc(C#Cc4ccccc4)cc3)[C@@H]2C1 [compound 479] | −19.91 | < 10 | ~100 | – |
| Cc1ccccc1-c1ccc([C@H]2[C@H](CO)N3C(=O)CN(C(=O)Nc4cccc(F)c4)C[C@@H]23)cc1 [compound 534] | −3.03 | 7 | 70 | – |
| CCCCC(=O)N1CC(=O)N2[C@@H](CO)[C@@H](c3ccc(C#Cc4cccc(OC)c4)cc3)[C@@H]2C1 [compound 564] | −1.33 | > 100 | – | – |
| Cc1ccccc1-c1ccc([C@H]2[C@H](CO)N3C(=O)CN(C(=O)c4ccncc4)C[C@@H]23)cc1 [compound 580] | −7.49 | – | 70 | – |
| Cc1ccccc1-c1ccc([C@@H]2[C@@H](CO)N3C(=O)CN(S(C)(=O)=O)C[C@@H]23)cc1 [compound 585] | – | 2.5 | 40 | −12.65* |
| COc1ccccc1-c1ccc([C@H]2[C@@H](CO)N3CCCCN(C(=O)c4ccncc4)C[C@H]23)cc1 [compound 586] | −17.17 | 7 | 70 | – |
| COc1cccc(C#Cc2ccc([C@@H]3[C@H](CO)N4C(=O)CN(C(C)=O)C[C@@H]34)cc2)c1 [compound 608] | −15.34 | < 10 | ~100 | – |
| Cc1ccccc1-c1ccc([C@H]2[C@@H](CO)N3CCCCN(S(=O)(=O)c4cn(C)cn4)C[C@H]23)cc1 [compound 736] | −16.6 | 2.5 | 35 | – |
| Cc1cccc(-c2ccc([C@@H]3[C@@H](CO)N4CCCCN(C(=O)NC(C)C)C[C@@H]34)cc2)c1 [compound 777] | −5.51 | – | 30 | – |
| Cc1cccc(-c2ccc([C@H]3[C@@H](CO)N4CCCCN(C(=O)c5ccncc5)C[C@H]34)cc2)c1 [compound 836] | −18.28 | – | 60 | – |
| Cc1cccc(-c2ccc([C@@H]3[C@@H](CO)N4CCCCN(CC5CC5)C[C@@H]34)cc2)c1 [compound 837] | −2.88 | > 100 | – | – |
| Cc1ccccc1-c1ccc([C@H]2[C@@H](CO)N3CCCCN(C(=O)Cc4ccccn4)C[C@@H]23)cc1 [compound 890] | −5.69 | > 100 | – | – |
| Cc1cccc(-c2ccc([C@@H]3[C@@H](CO)N4C(=O)CN(C(=O)NC5CCCCC5)C[C@@H]34)cc2)c1 [compound 904] | −16.59 | > 5 | – | – |
| Cc1cccc(-c2ccc([C@@H]3[C@@H](CO)N4CCCCN(S(=O)(=O)c5cccs5)C[C@@H]34)cc2)c1 [compound 945] | −3.77 | – | 30 | – |

Other lines, results leading:

| Average Z-score (Fluorescence anisotropy) [1, 3] | IC50 [2] [µM] | Emax [2] [%] | Average Z-score (Fluorescence anisotropy) ([1]; values marked *: from the screen using the diversity-oriented synthesis (DOS) informer set of plates, 20 μM) | SMILES |
| --- | --- | --- | --- | --- |
| −2.37 | > 100 | – | – | COc1cccc(-c2ccc([C@@H]3[C@@H](CO)N4CCCCN(C(=O)Nc5ccncc5)C[C@@H]34)cc2)c1 [compound 433] |
| −19.08 | 2.5 | 50 | – | COc1ccccc1-c1ccc([C@H]2[C@@H](CO)N3CCCCN(C(=O)NC4CCCC4)C[C@H]23)cc1 [compound 439] |
| −12.38 | > 10 | 70 | – | Cc1ccccc1-c1ccc([C@H]2[C@H](CO)N3C(=O)CN(C(=O)c4cccnc4)C[C@@H]23)cc1 [compound 491] |
| −9.77 | 2.5 | 30 | – | Cc1cccc(-c2ccc([C@@H]3[C@@H](CO)N4CCCCN(S(=O)(=O)c5cccc(C)c5)C[C@@H]34)cc2)c1 [compound 496] |
| −21.34 | 0.5 | 30 | – | Cc1ccccc1-c1ccc([C@H]2[C@@H](CO)N3C(=O)CN(C(=O)Nc4ccc(F)cc4)C[C@H]23)cc1 [compound 510] |
| −16.2 | < 10 | ~100 | – | OC[C@H]1[C@@H](c2ccc(C#Cc3ccccc3)cc2)[C@@H]2CN(Cc3cncnc3)CCCCN12 [compound 525] |
| −0.82 | – | 30 | – | COc1ccc(NC(=O)N2CCCCN3[C@H](CO)[C@H](c4ccc(-c5ccccc5C)cc4)[C@@H]3C2)cc1 [compound 529] |
| −5.28 | > 100 | – | – | COC(=O)N1CCCCN2[C@H](CO)[C@@H](c3ccc(-c4cccc(C)c4)cc3)[C@@H]2C1 [compound 559] |
| −17.51 | – | 90 | – | Cc1cccc(-c2ccc([C@@H]3[C@@H](CO)N4C(=O)CN(C(=O)c5cnccn5)C[C@@H]34)cc2)c1 [compound 653] |
| −6.65 | > 100 | – | – | Cc1cccc(-c2ccc([C@@H]3[C@@H](CO)N4CCCCN(Cc5cncnc5)C[C@@H]34)cc2)c1 [compound 654] |
| −4.78 | > 100 | – | – | Cc1ccccc1-c1ccc([C@H]2[C@@H](CO)N3CCCCN(C(=O)c4cccnc4)C[C@@H]23)cc1 [compound 712] |
| −19.67 | 2.5 | 70 | – | Cc1ccccc1-c1ccc([C@@H]2[C@H]3CN(C(=O)c4cccnc4)CC(=O)N3[C@H]2CO)cc1 [compound 745] |
| −3.48 | > 100 | – | – | Cc1ccccc1-c1ccc([C@H]2[C@@H](CO)N3CCCCN(CC4CC4)C[C@@H]23)cc1 [compound 768] |
| −19.52 | – | 40 | – | Cc1cccc(-c2ccc([C@@H]3[C@H](CO)N4CCCCN(S(=O)(=O)c5cn(C)cn5)C[C@@H]34)cc2)c1 [compound 795] |
| −17.31 | 2.5 | 70 | – | Cc1ccccc1-c1ccc([C@H]2[C@@H](CO)N3C(=O)CN(C(=O)Cc4ccccn4)C[C@@H]23)cc1 [compound 805] |
| −17.68 | – | 80 | – | Cc1cccc(-c2ccc([C@@H]3[C@H]4CN(C(=O)c5cccnc5)CC(=O)N4[C@H]3CO)cc2)c1 [compound 838] |
| −18.53 | 2.5 | 40 | – | Cc1ccccc1-c1ccc([C@@H]2[C@H]3CN(S(=O)(=O)c4cn(C)cn4)CCCCN3[C@H]2CO)cc1 [compound 868] |
| −19.01 | > 20 | 90 | – | Cc1ccccc1-c1ccc([C@@H]2[C@H](CO)N3CCCCN(C(=O)NC4CCCC4)C[C@@H]23)cc1 [compound 932] |
| −6.79 | > 60 | – | – | Cc1cccc(-c2ccc([C@H]3[C@@H](CO)N4CCCCN(Cc5cccnc5)C[C@H]34)cc2)c1 [compound 959] |
| −19.69 | 2.5 | 90 | – | CCS(=O)(=O)N1CCCCN2[C@@H](CO)[C@@H](c3ccc(C#Cc4ccccc4OC)cc3)[C@@H]2C1 [compound 964] |
